Test results as given in patent US5624928A, “Method of synthesizing an endonuclease inhibitor and analogs thereof” (priority 1994, dated 1997).

Target: transcription apparatus of the influenza virus (Influenza A virus, UniProt P03433)
Test: in vitro influenza transcription assay
Assay type: biochemical

Compound | IC50 | IC50 in flu transcription assay (compared with the natural product)
CC(C)/C=C1\N=C(CC(C)C)C(=O)N(O)C1=O [Compound I, 1-(N-hydroxy)-3-(2-methyl-propyl)-5-(2-methyl-Z-prop-1-enyl)-2,6-diketopiperazine-3,4-ene] | 5 µM | same IC50
O=C1C(Cc2ccc(F)cc2)=N/C(=C\c2ccccc2)C(=O)N1O [Example 15B] | 6.5 µM | 
CC(C)CC1NC(Cc2ccc(F)cc2)C(=O)N(O)C1=O (centres unmarked) [Example 16] | 85 µM | 
COc1ccc(/C=C2\N=C(Cc3ccccc3)C(=O)N(O)C2=O)cc1 [Example 14, 1-(N-hydroxy)-3-(benzyl)-5-(Z-p-methoxybenz-1-enyl)-2,6-diketopiperazine-3,4-ene] | 2.8 µM | 
CC(C)CC1=N/C(=C\c2ccccc2F)C(=O)N(O)C1=O [Example 10, 1-(N-hydroxy)-3-(2-methyl-propyl)-5-(Z-o-fluorobenz-1-enyl)-2,6-diketopiperazine-3,4-ene] | 7.3 µM | 
O=C1C(Cc2ccccc2)=N/C(=C\c2ccc(F)cc2)C(=O)N1O [Example 15A, 1-(N-hydroxy)-3-(benzyl)-5-(Z-p-fluoro-benz-1-enyl)-2,6-diketopiperazine-3,4-ene] | 3.5 µM | 
CC(C)CC1=N/C(=C\c2ccc(F)cc2)C(=O)N(O)C1=O [Example 9, 1-(N-hydroxy)-3-(2-methyl-propyl)-5-(Z-p-fluorobenz-1-enyl)-2.6-diketopiperazine-3.4-ene] | 0.9 µM | 
CC(C)CC1=N/C(=C\c2cccc(F)c2)C(=O)N(O)C1=O [Example 11, 1-(N-hydroxy)-3-(2-methyl-propyl)-5-(Z-m-fluorobenz-1-enyl)-2,6-diketopiperazine-3,4-ene] | 1.5 µM | 
COc1ccc(/C=C2\N=C(CC(C)C)C(=O)N(O)C2=O)cc1 [Example 12, 1-(N-hydroxy)-3-(2-methyl-propyl)-5-(Z-p-methoxybenz-1-enyl)-2,6-diketopiperazine-3,4-ene] | 0.8 µM | 
CC(C)CC1=N/C(=C\c2ccccc2)C(=O)N(O)C1=O [Example 8, 1-(N-hydroxy)-3-(2-methyl-propyl)-5-(Z-benz-1-enyl)-2.6-diketopiperazine-3,4-ene] | 4.8 µM | 
